This note sets out measurements from patent US20250082633A1, “COMPOUNDS AND METHODS FOR MODULATING SPLICING” (REMIX THERAPEUTICS INC., priority 2021, published 2025).

For one test, the system named is SMN2 mRNA. As to the kind of experiment: RT-qPCR splicing assay, gene panel, SMN2 canonical junction (CJ) mRNA. Format: cell-based. The note with it: Homo sapiens, read-out: SMN2 CJ IC50. Put shortly:
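A673 (DMEM/10% FBS) or K562 (IMDM/10% FBS) cells were treated 24 h at 37 °C with an 11-point 3-fold dilution series, top final 10 uM, DMSO ≤0.25%. Lysates underwent one-step RT-qPCR for the canonical-junction isoform with GAPDH, GUSB or PPIA as housekeeper. ΔΔCt versus DMSO was converted to RQ (2^−ΔΔCt), then to percent response.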
In general terms: In qPCR the cycle at which signal appears reflects the starting amount.

The subject of test [1] is HiBiT-tagged MYB protein in K562 cells. As to the kind of experiment: HiBit protein abundance assay, MYB. To be noted: K562 HiBiT-modified cells, 24 hours, luminescence. Format: cell-based, human. The method, then:
Compounds described herein were used to screen for effects on quantitative protein abundance using a HiBit assay system (Promega). Quantitative protein abundance was determined by measuring the protein levels of HiBit-tagged protein targets expressed in cell culture via luminescence using the Nano-Glo HiBiT Lytic Detection System, which uses a split complementation assay format to reconstitute NanoBiT enzyme to generate a luminescent signal. A protein abundance assay was developed such that endogenous protein targets could be modified with the HiBiT peptide tag and their abundance could be assessed after compound treatment. Briefly, K562 cell lines containing a HiBiT-modification were treated with various compounds described herein (e.g., compounds of Formulas (I), (II), or (III)). After treatment for 24 hours, the protein abundance of a specific target was determined by measuring luminescence. • Promega Nano-Glo HiBiT Lytic Detection System (cat #N3030) • Corning 384-well TC-treated microplates (cat #3570) • Synthego Engineered Cells Knock-In Clones [table] Cells were maintained in IMDM with 10% FBS. Before the assay, cells were diluted with phenolphthalein-free growth media (IMDM+1% FBS media) and were seeded in a 384-well plate at a density of 10000 cells/well (for each cell line listed in Table 6). Each compound was prepared as a 10-point 3-fold serial dilution in DMSO with the top dose at a final concentration of 10 μM in the well. Unmodified K562 cells were added at the previously specified density with DMSO to serve as an assay baseline and positive control (PC) and DMSO only with the respective modified cell lines was added to the negative control (NC) columns. Final DMSO concentration was kept at or below 0.25%. Treated cell plates were placed in an incubator at 37° C. with 5% CO2 for 24 hours. After 24 hours, 25 μL of Complete HiBit Lytic reagent was added to each well at room temperature (e.g. one plate requiring 10 mL Lytic Buffer, 100 μL LgBiT Protein, 200 μL Lytic Substrate), shaken for 5 minutes at 600 RPM, then left to sit for 10 minutes for signal to stabilize before reading on a Spark Cyto plate reader (Tecan) with a 500 ms measurement time. To determine compound effects on protein abundance of each target in Table 6, the percent response for each respective cell line was calculated at each compound concentration as follows: For the normalized response at each concentration, a four-parameter logistical regression was fit to the data and the response was interpolated at the 50% value to determine a concentration for protein abundance at 50% (IC50) the untreated control.
For orientation: The HiBiT peptide binds its large partner to form an active luciferase.

Where [2] appears, read: decrease in CJ mRNA levels, larger panel of genes, Table 3.

Where a name gives a salt, the structure may show the parent alone. Read-outs that look alike come from different tables or passages of the source.

As for `Cc1nc2c(C)cc(-n3cc4cc(N5CCNCC5)cc(F)c4n3)cc2o1` [Compound 119, 6-(7-fluoro-5-piperazin-1-yl-indazol-2-yl)-2,4-dimethyl-1,3-benzoxazole], the IC50 (with SMN2 mRNA (setting [2]); in test [1]) was 1 to 10 µM throughout.
For the compound `Cn1cc2cc(-c3ccc4nn(C5CCNCC5)cc4c3)cc(F)c2n1` [Compound 105, 7-fluoro-2-methyl-5-[2-(4-piperidyl)indazol-5-yl]indazole], the concentration for half-maximal inhibition (IC50) in the test on SMN2 mRNA (setting [2]) was under 0.1 µM; in test [1] it was 0.1 to 1 µM.
For `Cc1nc2ccc(-c3cc(F)c4nn(C5CCNCC5)cc4c3)cc2s1` [Compound 134, 6-(7-fluoro-2-(piperidin-4-yl)-2H-indazol-5-yl)-2-methylbenzo[d]thiazole] the same measures were 0.1 to 1 µM and 1 to 10 µM.
In the case of `Cc1cn2nc(-c3cc(F)c4nn(C5CCNCC5)cc4c3)cc(C)c2n1` [Compound 122, 6-(7-fluoro-2-(piperidin-4-yl)-2H-indazol-5-yl)-2,8-dimethylimidazo [1,2-b]pyridazine hydrochloride salt], the IC50 (in the test with SMN2 mRNA; in test [1]) was under 0.1 µM in each case.
As to `Cc1c(O)c(-c2ccc3nn(C4CCNCC4)cc3n2)cc2cn(C)nc12` [Compound 109, 2,7-dimethyl-5-[2-(4-piperidyl)pyrazolo[4,3-b]pyridin-5-yl]indazol-6-ol], the IC50 is under 0.1 µM in the test on SMN2 mRNA (setting [2]) and 0.1 to 1 µM in test [1].
For `Fc1cc(-c2ccc3cnccc3c2)cc2cn(C3CCNCC3)nc12` [Compound 161, 6-[7-fluoro-2-(4-piperidyl)indazol-5-yl]isoquinoline] the same measures were 0.1 to 1 µM and 1 to 10 µM.
For `Cc1cc(-n2cc3cc(N4CCNCC4)ccc3n2)cc2cn(C)nc12` [Compound 121, 2,7-dimethyl-5-(5-piperazin-1-ylindazol-2-yl)indazole] the same measures were 1 to 10 µM and over 10 µM.
For `Cc1cn2nc(-c3cc(F)c4nn([C@@H]5CCNC6(CC6)C5)cc4c3)cc(C)c2n1` [Compound 173] the same measures were under 0.1 µM and 0.1 to 1 µM.
Take `Cc1nc2ccc(-c3cc(F)c4nn(C5CCNCC5)cc4c3)cc2o1` [Compound 135, 6-[7-fluoro-2-(4-piperidyl)indazol-5-yl]-2-methyl-1,3-benzoxazole]: the half-inhibitory concentration (IC50) is under 0.1 µM with SMN2 mRNA (setting [2]) and 0.1 to 1 µM in test [1].
With `Cc1nc2c(F)cc(-c3cc(F)c4nn(C5CCNCC5)cc4c3)cc2o1` [Compound 136, 4-fluoro-6-[7-fluoro-2-(4-piperidyl)indazol-5-yl]-2-methyl-1,3-benzoxazole], the IC50 with SMN2 mRNA (setting [2]) was under 0.1 µM; in test [1], 0.1 to 1 µM.
For `Cc1cn2nc(-c3cc(F)c4nn(C5CCNCC5)cc4c3)cc2c(C)n1` [Compound 124, 2-[7-fluoro-2-(4-piperidyl)indazol-5-yl]-4,6-dimethyl-pyrazolo[1,5-a]pyrazine] the same measures were under 0.1 µM and 0.1 to 1 µM.
For `Cc1cc(-n2cc3cc(C4CCNCC4)cc(F)c3n2)cc2cn(C)nc12` [Compound 115, 2-(2,7-dimethylindazol-5-yl)-7-fluoro-5-(4-piperidyl)indazole] the same measures were 0.1 to 1 µM and 1 to 10 µM.
In the case of `Cc1ncc2cc(-c3cc(F)c4nn(C5CCNCC5)cc4c3)ccc2n1` [Compound 165, 6-[7-fluoro-2-(4-piperidyl)indazol-5-yl]-2-methyl-quinazoline], the IC50 (in the test on SMN2 mRNA (setting [2]); in test [1]) was over 10 µM in each case.
As to `CCN1CCC(n2cc3cc(-c4cc(C)c5nc(C)cn5n4)cc(F)c3n2)CC1` [Compound 146, 6-[2-(1-ethyl-4-piperidyl)-7-fluoro-indazol-5-yl]-2,8-dimethyl-imidazo[1,2-b]pyridazine], the IC50 in the test on SMN2 mRNA (setting [2]) is under 0.1 µM; in test [1], 0.1 to 1 µM.
`Cc1cn2nc(-c3cc(F)c4nn(C5CCN(CC6CC6)C6(CC6)C5)cc4c3)cc(C)c2n1` (stereo not drawn) [Compound 183, 6-[2-[4-(cyclopropylmethyl)-4-azaspiro[2.5]octan-7-yl]-7-fluoro-indazol-5-yl]-2,8-dimethyl-imidazo[1,2-b]pyridazine]: the IC50 with SMN2 mRNA (setting [2]) is under 0.1 µM; in test [1], 0.1 to 1 µM.
For `Cc1cn2nc(-c3cc(F)c4nn([C@H]5CCNC[C@@H]5F)cc4c3)cc(C)c2n1` [Compound 167, 6-(7-fluoro-2-((3S,4S)-3-fluoropiperidin-4-yl)-2H-indazol-5-yl)-2,8-dimethylimidazo[1,2-b]pyridazine] the same measures were under 0.1 µM and 1 to 10 µM.
Regarding `Cc1cn2nc(-c3cc4cn(C5CCNCC5)nc4cc3O)cc(C)c2n1` [Compound 154, 5-(2,8-dimethylimidazo[1,2-b]pyridazin-6-yl)-2-(piperidin-4-yl)-2H-indazol-6-ol], the 50% inhibitory concentration (IC50) with SMN2 mRNA (setting [2]) was under 0.1 µM; in test [1], 0.1 to 1 µM.
For `Cc1cn2nc(-c3cc(F)c4nn(C5CCN(CC6CC6)CC5)cc4c3)cc(C)c2n1` [Compound 149, 6-[2-[1-(cyclopropylmethyl)-4-piperidyl]-7-fluoro-indazol-5-yl]-2,8-dimethyl-imidazo[1,2-b]pyridazine] the same measures were under 0.1 µM and 0.1 to 1 µM.

A word on the IC50: it is the concentration needed to halve the response being measured.
